According to patent publication US6451809B2 (dated 2002):

melting point	SMILES
120 to 122 °C	Cc1ccc(CNC(=O)C2=C3N(CCC2=O)c2ccccc2N3CCN(C)C)cc1
60 to 65 °C	CCNCCOc1ccc(NC(=O)C2=C(O)CCn3c2nc2ccccc23)cc1.Cl
130 to 142 °C	Cl.O=C(Nc1ccc(OCCN2CCCC2)cc1)C1=C(O)CCn2c1nc1ccccc12
175 to 178 °C	CCN(CC)CCOc1ccncc1NC(=O)C1=C(O)CCn2c1nc1ccccc12.Cl
170 to 174 °C	Cl.O=C(Nc1cnccc1OCCN1CCCC1)C1=C(O)CCn2c1nc1ccccc12
225 to 230 °C	Cl.O=C(Nc1cnccc1OCCN1CCCCC1)C1=C(O)CCn2c1nc1ccccc12
55 to 65 °C	Cl.O=C(Nc1cnccc1OCCOCCN1CCCC1)C1=C(O)CCn2c1nc1ccccc12
60 to 68 °C	Cl.O=C(Nc1cnccc1OCCCN1CCCC1)C1=C(O)CCn2c1nc1ccccc12
138 to 140 °C	CN(C)CCN1C2=C(C(=O)NCc3ccccc3Cl)C(=O)CCN2c2ccccc21
